Format in all cases: cell-based
Assay [1] has as its system Staphylococcus epidermidis CPHL A2. Description: MIC test, agar dilution with Steers multiwell inoculator. Particulars: CPHLA2, TSA dishes, 24 h at 35°C, read-out: Minimum Inhibiting Concentration. The protocol:
(§1) As to the antibacterial activity, there was determined the Least (Minimum) Inhibiting Concentration (MIC), by working according to the following operative conditions.
(§2) There were used suspensions of test germs (5 gram-positive and 15 gram-negative) having a known titre, kept freezed at -80°C and diluted, at the time of use, in peptonized water up to a concentration of 1-2.10⁷ cfu/ml.
(§3) A few mg of the products, according to the invention were weighed sufficient for preparing parent solutions in DMSO + NaOH (1N) containing 2560 µg/ml (64µg/ml/dish). From the thus prepared parent solutions there were prepared 12 serial dilutions (1:2) down to the concentration of 1.25 µg/ml.
(§4) 0.5 ml of the different dilutions of each product were distributed on dishes containing 19.5 ml of agarized medium (TSA), maintained in a fluid state at the temperature of 50°C. After slight stirring, the dishes were made to solidify and dry under hood (laminar flow).
(§5) The MIC tests (Least or "Minimum" Inhibiting Concentration) were performed by using a Steers multiwell inoculator having 36 wells, each containing 200 µl of bacterial suspension.
(§6) After inoculation, the dishes were placed into a thermostat and checked after 24 h of incubation at 35°C.
(§7) The MIC is defined as the lowermost product concentration (µg/ml) inhibiting the visible growth of the microorganisms.
(In general: In agar dilution the substance is mixed into plates at graded concentrations.)

In the next assay the test system is Escherichia coli CNUR 1. Described as above. Particulars: CNUR1, TSA dishes, 24 h at 35°C, read-out: Minimum Inhibiting Concentration. The protocol: as §1, §2, §3, §4, §5, §6, §7
The subject of the next assay is Shighella enteritidis. Described as above. Particulars: TSA dishes, 24 h at 35°C, read-out: Minimum Inhibiting Concentration. The procedure: as §1, §2, §3, §4, §5, §6, §7
The subject of a further assay is Proteus vulgaris CNUR 6. The assay is described as above. The settings on record: CNUR6, TSA dishes, 24 h at 35°C, read-out: Minimum Inhibiting Concentration. The protocol: as §1, §2, §3, §4, §5, §6, §7
Assay [2] relates to Pseudomonas aeruginosa CNUR 4. The assay is described as above. Particulars: CNUR4, TSA dishes, 24 h at 35°C, read-out: Minimum Inhibiting Concentration. The procedure:
as §1, §2, §3, §4, §5, §6, §7

The subject of assay [3] is Staphylococcus epidermidis HCF Berset C. The description is as above. Particulars: TSA dishes, 24 h at 35°C, read-out: Minimum Inhibiting Concentration. The procedure:
as §1, §2, §3, §4, §5, §6, §7

Assay [4] has as its system Enterobacter cloacae OMNF 1174. Described as above. Particulars: OMNF1174, TSA dishes, 24 h at 35°C, read-out: Minimum Inhibiting Concentration. The protocol:
as §1, §2, §3, §4, §5, §6, §7

The test system of assay [5] is Pseudomonas aeruginosa ATCC 9027. The description is as above. The settings on record: ATCC9027, TSA dishes, 24 h at 35°C, read-out: Minimum Inhibiting Concentration. The procedure: as §1, §2, §3, §4, §5, §6, §7
The next assay has as its system Escherichia coli ISF 432. The assay is described as above. Particulars: ISF432, TSA dishes, 24 h at 35°C, read-out: Minimum Inhibiting Concentration. The protocol:
as §1, §2, §3, §4, §5, §6, §7

The subject of assay [6] is Klebsiella pneumoniae ATCC 10031. The description is as above. Particulars: ATCC10031, TSA dishes, 24 h at 35°C, read-out: Minimum Inhibiting Concentration. The procedure:
as §1, §2, §3, §4, §5, §6, §7

For another assay, the system named is Escherichia coli 120. The assay is described as above. The settings on record: TSA dishes, 24 h at 35°C, read-out: Minimum Inhibiting Concentration. The protocol:
as §1, §2, §3, §4, §5, §6, §7

Assay [7] relates to Pseudomonas aeruginosa CNUR 2. The assay is described as above. The settings on record: CNUR2, TSA dishes, 24 h at 35°C, read-out: Minimum Inhibiting Concentration. The protocol:
as §1, §2, §3, §4, §5, §6, §7

Assay [8] has as its system Staphylococcus aureus ATCC 6538. The assay is described as above. The settings on record: ATCC6538, TSA dishes, 24 h at 35°C, read-out: Minimum Inhibiting Concentration. The procedure: as §1, §2, §3, §4, §5, §6, §7
The subject of assay [9] is Streptococcus facealis LEP Br. Described as above. Particulars: TSA dishes, 24 h at 35°C, read-out: Minimum Inhibiting Concentration. The protocol:
as §1, §2, §3, §4, §5, §6, §7

Assay [10] concerns Providencia stuardii CNUR 5. The description is as above. The settings on record: CNUR5, TSA dishes, 24 h at 35°C, read-out: Minimum Inhibiting Concentration. The procedure:
as §1, §2, §3, §4, §5, §6, §7

In assay [11] the test system is Escherichia coli ATCC 8739. The assay is described as above. Particulars: ATCC8739, TSA dishes, 24 h at 35°C, read-out: Minimum Inhibiting Concentration. The procedure: as §1, §2, §3, §4, §5, §6, §7
Another assay relates to Escherichia coli CNUR 8. Described as above. Particulars: CNUR8, TSA dishes, 24 h at 35°C, read-out: Minimum Inhibiting Concentration. The protocol: as §1, §2, §3, §4, §5, §6, §7
Assay [12] relates to Acinebacter calcoloaceticus OSMPV 1130. The description is as above. The settings on record: TSA dishes, 24 h at 35°C, read-out: Minimum Inhibiting Concentration. The protocol:
as §1, §2, §3, §4, §5, §6, §7

The subject of assay [13] is Enterobacter cloacae OMNF 1153. Described as above. The settings on record: OMNF1153, TSA dishes, 24 h at 35°C, read-out: Minimum Inhibiting Concentration. The protocol: as §1, §2, §3, §4, §5, §6, §7
Assay [14] deals with Staphylococcus aureus MPR 5. The assay is described as above. The settings on record: MPR5, TSA dishes, 24 h at 35°C, read-out: Minimum Inhibiting Concentration. The procedure: as §1, §2, §3, §4, §5, §6, §7
The subject of a further assay is Gram -. Kind of assay: MIC test, average over the 15 gram-negative test germs. Particulars: 24 h. The procedure: as §1, §2, §3, §4, §5, §6, §7
In the next assay the test system is Gram +. Kind of assay: MIC test, average over the 5 gram-positive test germs. The settings on record: 24 h. The protocol: as §1, §2, §3, §4, §5, §6, §7
[15] abbreviates: geometrical average of the MIC over the 15 Gram - strains, read-out: Geometrical Average.
Where [16] appears, read: mean log of the MIC over the 15 Gram - strains, read-out: Log (converted).
The mark [17] stands for this setting: geometrical average of the MIC over the 5 Gram + strains, read-out: Geometrical Average.

Each structure is given as a SMILES string. Converted amounts (≈) assume the structure as drawn. Read-outs that look alike come from different tables or passages of the source.

Regarding `Cc1c(N2CCSCC2)c(N)cc2c(=O)c(C(=O)O)cn(C3CC3)c12` [Compound 35], the MIC in [1] came out at 0.5 µg/mL (≈ 1.39 µM); in the assay with Escherichia coli CNUR 1 it was 0.5 µg/mL (≈ 1.39 µM); in the assay with Shighella enteritidis, 0.5 µg/mL (≈ 1.39 µM); in the assay with Proteus vulgaris CNUR 6, 64 µg/mL (≈ 178 µM); in assay [2], 64 µg/mL (≈ 178 µM); in assay [3], 1 µg/mL (≈ 2.78 µM). Also, the MIC is 1 µg/mL (≈ 2.78 µM) in assay [4]; 4 µg/mL (≈ 11.1 µM) in assay [5]; 0.06 µg/mL (≈ 0.167 µM) in the assay with Escherichia coli ISF 432; 0.03 µg/mL (≈ 0.0835 µM) in [6]; 0.25 µg/mL (≈ 0.696 µM) with Escherichia coli 120; 8 µg/mL (≈ 22.3 µM) in assay [7]. The MIC in [8] is 0.25 µg/mL (≈ 0.696 µM); in [9], 2 µg/mL (≈ 5.56 µM); in assay [10], 1 µg/mL (≈ 2.78 µM); in assay [11] it was 0.06 µg/mL (≈ 0.167 µM); in the assay with Escherichia coli CNUR 8 it was 0.25 µg/mL (≈ 0.696 µM); in [12] it was 1 µg/mL (≈ 2.78 µM). Moreover, the MIC was 0.5 µg/mL (≈ 1.39 µM) in assay [13]; 0.25 µg/mL (≈ 0.696 µM) in assay [14]; 0.863 µg/mL (≈ 2.4 µM) in the assay with Gram - (setting [15]); 0.863 µg/mL (≈ 2.4 µM) in the assay on Gram - (setting [16]); 0.574 µg/mL in the assay on Gram + (setting [17]); 0.574 µg/mL (≈ 1.6 µM) in the assay with Gram + (read-out: Log (converted)).

In the case of `CN1CCN(c2nc3c(cc2N)c(=O)c(C(=O)O)cn3C2CC2)CC1` [Compound 40, chlorhydrate of the 6-amino-1-cyclopropyl-7-(4-methyl-1-piperazinyl)-1,4-dihydro-4-oxo-1,8-naphthyridine carboxylic acid], the MIC in assay [1] worked out at 4 µg/mL; with Escherichia coli CNUR 1, 0.12 µg/mL; in the assay with Shighella enteritidis, 0.12 µg/mL; in the assay with Proteus vulgaris CNUR 6, 64 µg/mL; in [2], 64 µg/mL; in assay [3], 4 µg/mL. Moreover, the MIC in assay [4] amounted to 0.12 µg/mL; in assay [5], 2 µg/mL; in the assay with Escherichia coli ISF 432, 0.03 µg/mL; in assay [6], 0.03 µg/mL; with Escherichia coli 120, 0.06 µg/mL; in assay [7] it was 4 µg/mL. The MIC in [8] was 4 µg/mL; in [9], 32 µg/mL; in [10], 2 µg/mL; in assay [11], 0.12 µg/mL; in the assay with Escherichia coli CNUR 8, 0.06 µg/mL; in assay [12] it was 2 µg/mL. Also, the MIC in [13] is 0.12 µg/mL; in assay [14] it was 4 µg/mL; in the assay on Gram - (setting [15]), 0.466 µg/mL; in the assay on Gram - (setting [16]), 0.466 µg/mL; in the assay with Gram + (setting [17]), 6.06 µg/mL; in the assay with Gram + (read-out: Log (converted)), 6.07 µg/mL.

Turning to `CN1CCN(c2nc3c(c(N)c2N)c(=O)c(C(=O)O)cn3C2CC2)CC1` [Compound 42], the MIC in assay [1] is 4 µg/mL (≈ 11.2 µM); in the assay on Escherichia coli CNUR 1, 1 µg/mL (≈ 2.79 µM); with Shighella enteritidis it was 0.5 µg/mL (≈ 1.4 µM); in the assay with Proteus vulgaris CNUR 6 it was 64 µg/mL (≈ 179 µM); in [2], 128 µg/mL (≈ 357 µM); in [3] it was 4 µg/mL (≈ 11.2 µM). The MIC in assay [4] came to 1 µg/mL (≈ 2.79 µM); in [5], 8 µg/mL (≈ 22.3 µM); in the assay with Escherichia coli ISF 432, 0.06 µg/mL (≈ 0.167 µM); in assay [6], 0.06 µg/mL (≈ 0.167 µM); with Escherichia coli 120 it was 0.25 µg/mL (≈ 0.698 µM); in assay [7], 16 µg/mL (≈ 44.6 µM). For the same molecule, the MIC is 2 µg/mL (≈ 5.58 µM) in assay [8]; 16 µg/mL (≈ 44.6 µM) in assay [9]; 4 µg/mL (≈ 11.2 µM) in [10]; 0.06 µg/mL (≈ 0.167 µM) in assay [11]; 0.25 µg/mL (≈ 0.698 µM) in the assay with Escherichia coli CNUR 8; 4 µg/mL (≈ 11.2 µM) in [12]. Besides, the MIC was 1 µg/mL (≈ 2.79 µM) in [13]; 2 µg/mL (≈ 5.58 µM) in assay [14]; 1.37 µg/mL (≈ 3.83 µM) with Gram - (setting [15]); 1.37 µg/mL (≈ 3.82 µM) in the assay on Gram - (setting [16]); 4 µg/mL (≈ 11.2 µM) in the assay with Gram + (read-out: Log (converted)).
